Values after ≈ are worked out from the molar mass of the structure shown.
Assay: Water solubility of Compound A
Type: physicochemical
Experimental: Agents for sedation and anaesthesia are frequently administered by intravenous injection, a form of administration for which the agents need to be in a water-miscible form. Compound A, however, is an oleaginous compound with a water solubility of about 2 mg/ml. Such a compound is considered “slightly soluble” in the solubility definitions in General Notices 5.30 of the United States Pharmacopeia, USP33-NF28, published by the United States Pharmacopeial Convention Inc., Rockville, Md. In the case of Compound A, this solubility is not optimal for a therapeutically useful dose to be prepared simply by dissolution in water. The preparation of slightly soluble medicinal compounds for intravenous administration has been the subject of considerable investigation, but remains a significant challenge in the development of new therapeutic agents. Several drug delivery systems have been investigated for such compounds. In the present application, emulsions, in which droplets of oil, in which the drug is itself dissolved, are dispersed in an aqueous medium with the aid of an emulsifier and other suitable excipients and processing. A similar method is used for the commercial formulation of propofol, (2,6-diisopropyl-phenol), which is commercially available as Diprivan® Injectable Emulsion at concentrations of 1% and 2%. Oil-in-water emulsions comprising propofol are described in WO 96/29064.

CCCOC(=O)Cc1ccc(OCC(=O)N(CC)CC)c(OCC)c1 [Compound A, [3-ethoxy-4-[(N,N-diethylcarbamido)methoxy]phenyl]acetic acid n-propyl ester]
solubility: ~2000 µg/mL (≈ 5.69 mM)

— patent US20130236501A1, “Injectable Emulsion of Sedative Hypnotic Agent” (ASTRAZENECA AB, priority 2010, published 2013)
